Holding throughout (test): Bliss interaction score (quartile over a dose matrix) (fitness difference); higher = more antagonism (negative = synergy)
The subject of experiment [1] is S. aureus DSM 20231. The method in brief: (§1)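 Fitness was OD595 at entry into stationary phase divided by the plate's robust no-drug mean and capped at 1; single-drug fitness was inferred from combination data. The Bliss score is observed minus expected (product) fitness, summarised by quartiles over technical, biological and donor/recipient replicates.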
In experiment [2] the test system is S. aureus Newman. The gist of the method: as §1
Experiment [3] has as its system B. subtilis 168. The method in brief:
as §1

Experiment [4] relates to S. pneumoniae D39V. The method in brief:
as §1
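Further: first quartile when negative (synergy) and third quartile when positive (antagonism).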

As to `CO[C@@H]1[C@@H](OC(N)=O)[C@@H](O)[C@H](Oc2ccc3c(O)c(NC(=O)c4ccc(O)c(CC=C(C)C)c4)c(=O)oc3c2C)OC1(C)C` [Novobiocin] + CCCCCCCCCC(=O)N[C@@H]1[C@H]([C@@H]([C@H](O[C@H]1OC2=C3C=C4C=C2OC5=C(C=C(C=C5)[C@H]([C@H]6C(=O)N[C@@H](C7=C(C(=CC(=C7)O)OC8[C@H]([C@H]([C@@H]([C@H](O8)CO)O)O)O)C9=C(C=CC(=C9)[C@H](C(=O)N6)NC(=O)[C@@H]4NC(=O)[C@@H]1C2=CC(=CC(=C2)OC2=C(C=CC(=C2)[C@H](C(=O)N[C@H](CC2=CC(=C(O3)C=C2)Cl)C(=O)N1)N)O)O)O)C(=O)O)O[C@H]1[C@@H]([C@H]([C@@H]([C@H](O1)CO)O)O)NC(=O)C)Cl)CO)O)O [Teicoplanin], the Bliss interaction score in experiment [1] (main component drawn) was -0.102; in experiment [2] (main component drawn) it was -0.234; in experiment [3] (main component drawn) it was 0.127; in experiment [4] (main component drawn), 0.0574.
As for `CO[C@@H]1[C@@H](OC(N)=O)[C@@H](O)[C@H](Oc2ccc3c(O)c(NC(=O)c4ccc(O)c(CC=C(C)C)c4)c(=O)oc3c2C)OC1(C)C` [Novobiocin] + CC[C@H]1OC(=O)[C@H](C)C(=O)[C@H](C)[C@@H](O[C@@H]2O[C@H](C)C[C@H](N(C)C)[C@H]2O)[C@](C)(OC)C[C@@H](C)C(=O)[C@H](C)[C@H]2N(CCCCn3cnc(-c4cccnc4)c3)C(=O)O[C@]12C [Telithromycin], the Bliss interaction score was 0.0515 in experiment [1], -0.0192 in experiment [2], 0.0833 in experiment [3] and 0.0464 in experiment [4].
Take `CO[C@@H]1[C@@H](OC(N)=O)[C@@H](O)[C@H](Oc2ccc3c(O)c(NC(=O)c4ccc(O)c(CC=C(C)C)c4)c(=O)oc3c2C)OC1(C)C` [Novobiocin] + CN[C@H](CC(C)C)C(=O)N[C@H]1C(=O)N[C@@H](CC(N)=O)C(=O)N[C@H]2C(=O)N[C@H]3C(=O)N[C@H](C(=O)N[C@H](C(=O)O)c4cc(O)cc(O)c4-c4cc3ccc4O)[C@H](O)c3ccc(c(Cl)c3)Oc3cc2cc(c3O[C@@H]2O[C@H](CO)[C@@H](O)[C@H](O)[C@H]2O[C@H]2C[C@](C)(N)[C@H](O)[C@H](C)O2)Oc2ccc(cc2Cl)[C@H]1O [Vancomycin]: the Bliss interaction score in experiment [1] was -0.0386; in experiment [2], -0.0447; in experiment [3] it was 0.071; in experiment [4] it was -0.133.
Turning to `CO[C@@H]1[C@@H](OC(N)=O)[C@@H](O)[C@H](Oc2ccc3c(O)c(NC(=O)c4ccc(O)c(CC=C(C)C)c4)c(=O)oc3c2C)OC1(C)C` [Novobiocin] + CN[C@H](CC(C)C)C(=O)N[C@H]1C(=O)N[C@@H](CC(N)=O)C(=O)N[C@H]2C(=O)N[C@H]3C(=O)N[C@H](C(=O)N[C@H](C(=O)O)c4cc(O)cc(O)c4-c4cc3ccc4O)[C@H](O[C@H]3C[C@](C)(N)[C@@H](O)[C@H](C)O3)c3ccc(c(Cl)c3)Oc3cc2cc(c3O[C@@H]2O[C@H](CO)[C@@H](O)[C@H](O)[C@H]2O[C@H]2C[C@](C)(NCc3ccc(-c4ccc(Cl)cc4)cc3)[C@@H](O)[C@H](C)O2)Oc2ccc(cc2Cl)[C@H]1O [Oritavancin], the Bliss interaction score is -0.0612 in experiment [1], -0.0768 in experiment [2], -0.0421 in experiment [3] and 0.0403 in experiment [4].
Taken in the same sequence, the figures for `CO[C@@H]1[C@@H](OC(N)=O)[C@@H](O)[C@H](Oc2ccc3c(O)c(NC(=O)c4ccc(O)c(CC=C(C)C)c4)c(=O)oc3c2C)OC1(C)C` [Novobiocin] + CO[C@H]1/C=C/O[C@@]2(C)Oc3c(C)c(O)c4c(O)c(c(/C=N/N5CCN(C)CC5)c(O)c4c3C2=O)NC(=O)/C(C)=C\C=C\[C@H](C)[C@H](O)[C@@H](C)[C@@H](O)[C@@H](C)[C@H](OC(C)=O)[C@@H]1C [Rifampicin] were 0.0573, 0.0819, 0.0681 and 0.159.
In the case of `CO[C@@H]1[C@@H](OC(N)=O)[C@@H](O)[C@H](Oc2ccc3c(O)c(NC(=O)c4ccc(O)c(CC=C(C)C)c4)c(=O)oc3c2C)OC1(C)C` [Novobiocin] + Cn1nnc(-c2ccc(-c3ccc(N4C[C@H](CO)OC4=O)cc3F)cn2)n1 [Tedizolid], the Bliss interaction score in experiment [1] was -0.0789; in experiment [2], -0.0571; in experiment [3] it was 0.0533; in experiment [4], -0.131.
Taken in the same sequence, the figures for `CO[C@@H]1[C@@H](OC(N)=O)[C@@H](O)[C@H](Oc2ccc3c(O)c(NC(=O)c4ccc(O)c(CC=C(C)C)c4)c(=O)oc3c2C)OC1(C)C` [Novobiocin] + Oc1cc(Cl)ccc1Oc1ccc(Cl)cc1Cl [Triclosan] were 0.0686, -0.0304, 0.0532 and 0.177.

The values above are taken from the supplement of paper PMC10627819.
